The supplement of paper PMC10307832

Key:
Assay in all cases: relative viability (nuclei count vs DMSO), 5 days (fraction); higher = more cells survive
[1] = compound: CC(=O)c1c(C)c2cnc(Nc3ccc(N4CCNCC4)cn3)nc2n(C2CCCC2)c1=O [Palbociclib]
Procedure, shortened: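 Lung cancer cell lines were seeded into 1536-well plates, kept overnight at 37 °C and pinned with five library-drug doses (not always all listed) spaced by √10. After 5 days, nuclei were Hoechst-stained, imaged at 4× and counted with MetaXpress. Viability is treated-well nuclei over vehicle-well nuclei, taken as a median across plates. Plates needed control CV below 25% and at least one doubling.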

[2] = compound: CC(=O)c1c(C)c2cnc(Nc3ccc(N4CCNCC4)cn3)nc2n(C2CCCC2)c1=O [Palbociclib] + CC(C)C[C@H](NC(=O)[C@H](Cc1ccccc1)NC(=O)c1cnccn1)B(O)O [Bortezomib] (partner 0.002 µM)
Procedure, shortened: (§1)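 Cells from lung cancer lines were seeded into 1536-well plates and, one day later, dosed by pin tool. Treatments were either a single drug or a fixed dose of an anchor drug with five library-drug doses (not always all listed) in √10 steps. After 5 days, nuclei were stained in a one-step fixation (final 0.05% Triton X-100, 1% formaldehyde, 1 ug/ml Hoechst) and counted on 4× images, and relative viability is the treated-to-vehicle nuclei ratio, as the median of duplicate plates.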

[3] = compound: CC(=O)c1c(C)c2cnc(Nc3ccc(N4CCNCC4)cn3)nc2n(C2CCCC2)c1=O [Palbociclib] + Nc1nc2[nH]cc(CCc3ccc(C(=O)N[C@@H](CCC(=O)O)C(=O)O)cc3)c2c(=O)[nH]1 [Pemetrexed] (partner 0.2 µM)
Procedure, shortened: as §1

Cell Line	relative viability ([1]; 0.01 µM)	relative viability ([1]; 0.03162 µM)	relative viability ([1]; 0.1 µM)	relative viability ([1]; 0.3162 µM)	relative viability ([1]; 0.5 µM, anchor plate)	relative viability ([1]; 1 µM)	relative viability ([2]; first compound 0.01 µM)	relative viability ([2]; first compound 0.03162 µM)	relative viability ([2]; first compound 0.1 µM)	relative viability ([2]; first compound 0.3162 µM)	relative viability ([2]; first compound 1 µM)	relative viability ([3]; first compound 0.01 µM)	relative viability ([3]; first compound 0.03162 µM)	relative viability ([3]; first compound 0.1 µM)	relative viability ([3]; first compound 0.3162 µM)	relative viability ([3]; first compound 1 µM)
201T	1.02	0.863	0.9	0.867	0.349	0.571	1.16	0.954	1.04	0.946	0.709	0.343	0.342	0.358	0.372	0.283
NCI-H1993	1.05	0.882	0.726	0.69	0.658	0.67	1.23	0.905	0.969	0.763	0.814	0.681	0.649	0.482	0.512	0.54
NCI-H2085	0.979	0.966	0.879	0.805	0.475	0.574	0.991	0.99	0.969	0.871	0.543	0.823	0.798	0.752	0.6	0.485
COR-L 105	1	0.724	0.616	0.651	0.408	0.473	0.759	0.435	0.486	0.504	0.363	1.21	0.802	0.778	0.697	0.47
SK-LU-1	1.05	0.912	0.828	0.794	0.385	0.563	1.47	–	0.92	0.912	0.58	1.02	0.96	0.836	0.753	0.556
PC-3 [JPC-3]	1.08	0.895	0.855	0.761	0.536	0.59	0.776	0.701	0.706	0.665	0.545	1.14	1.06	0.952	0.878	0.428
NCI-H1563	0.988	0.896	0.85	0.869	–	0.853	0.824	0.98	0.869	0.796	0.577	0.836	0.729	0.746	0.795	0.629
NCI-H2009	0.991	0.905	0.781	0.693	0.237	0.35	0.987	0.867	0.68	0.679	0.219	1.04	0.925	0.913	0.72	0.408
PC-14	1.13	0.847	0.841	0.873	0.514	0.503	1.02	0.863	0.751	0.655	0.57	0.143	0.142	0.137	0.148	0.158
HCC-78	0.998	0.756	0.698	0.703	0.477	0.385	0.385	0.451	0.366	0.454	0.406	0.894	0.88	0.935	0.942	0.943
LC-2-ad	0.902	–	0.816	0.73	0.479	0.518	1.03	–	0.779	0.704	0.469	0.271	0.289	0.318	0.392	0.363
NCI-H1755	1.03	0.896	0.915	0.845	0.443	0.664	0.977	0.761	0.803	0.733	0.483	0.429	0.394	0.385	0.467	0.397
A-427	0.941	0.775	0.755	0.727	0.529	0.534	0.933	0.877	0.827	0.832	0.546	0.96	0.879	0.779	0.633	0.497
BEN	1.04	0.813	0.778	0.814	0.487	0.476	0.94	0.728	0.849	0.674	0.353	0.894	0.596	0.609	0.585	0.38
NCI-H596	0.894	0.775	0.9	0.876	–	1.04	1.06	0.984	0.998	1.01	1.04	0.514	0.617	0.514	0.52	0.497
NCI-H23	0.973	0.417	0.765	0.877	0.538	0.593	1.12	–	0.87	0.703	0.553	0.596	0.694	0.492	0.67	0.443
EMC-BAC-2	0.999	0.749	0.791	0.736	0.514	0.589	1.09	0.812	0.905	0.785	0.665	0.449	0.476	0.427	0.417	0.428
HCC-827	1.04	0.904	0.887	0.912	0.483	0.786	1.09	0.804	0.954	0.948	0.857	0.228	0.251	0.257	0.261	0.243
NCI-H647	1.06	0.781	0.865	0.82	0.415	0.597	0.963	0.814	0.696	0.851	0.472	0.167	0.171	0.2	0.179	0.188
NCI-H441	0.829	0.655	0.741	0.741	0.235	0.5	–	0.365	0.446	0.558	0.367	0.276	0.266	0.258	0.236	0.257
